Experimental data: patent publication US6642224B1, “Diazepan derivatives or salts thereof” (Yamanouchi Pharmaceutical Co., Ltd., priority 2000, dated 2003)

Experiments:
human factor Xa = target: T1, human factor Xa (Homo sapiens, UniProt P00742); experiment: Test on measurement of coagulation time by human activated blood coagulation factor X; format: biochemical; details: human blood plasma; concentration by which the coagulation time is prolonged 2-fold
T1 construct: purchased Enzyme Research Labs
Procedure: 1) Test on Measurement of Coagulation Time by Human Activated Blood Coagulation Factor X
To 90 μl of human blood plasma were added 10 μl of a drug or a physiological saline and 50 μl of human factor Xa (Enzyme Research Labs), incubation was carried out at 37° C. for 3 minutes, 100 μl of 20 mM CaCl2 previously warmed at 37° C. were added and the time until coagulation was measured by a coagulo-meter (KC10 of Amelung). With regard to the human blood plasma, each 45 ml of blood were collected from vein of elbow of six healthy persons using a syringe in which 5 ml of 3.8% sodium citrate were contained and centrifuged at 4° C. for 15 minutes at 3,000 rpm and the separated blood plasma was pooled and frozen, then thawed before use. With regard to the human factor Xa, the concentration by which the coagulation time when a physiological saline (control) was added was about 30 to 40 seconds was selected. A CT2 value (concentration by which the coagulation time is prolonged to an extent of 2-fold) was determined by plotting the drug concentrations and relative value (fold) of the coagulation time to the control, followed by subjecting to linear regression.

bovine thrombin = target: T2, bovine thrombin (Bos taurus, UniProt P00735); experiment: Test on measurement of coagulation time by bovine thrombin; format: biochemical; details: human blood plasma; concentration by which the coagulation time is prolonged 2-fold
T2 construct: 500 units of Thrombin (derived from bovine; Mochida Pharmaceutical); purchased Mochida Pharmaceutical
Procedure: 2) Test on Measurement of Coagulation Time by Bovine Thrombin
To 50 μl of human blood plasma was added 50 μl of a drug or a physiological saline, incubation was carried out at 37° C. for 3 minutes, 50 μl of thrombin (500 units of Thrombin (derived from bovine; Mochida Pharmaceutical) previously warmed at 37° C. was added and the time until coagulation was measured by a coagulo-meter (KC10 of Amelung). With regard to the human blood plasma, each 45 ml of blood was collected from vein of elbow of six healthy persons using a syringe in which 5 ml of 3.8% sodium citrate was contained and centrifuged at 4° C. for 15 minutes at 3,000 rpm and the separated blood plasma was pooled and frozen, then thawed before use. With regard to the thrombin, the concentration by which the coagulation time when a physiological saline (control) was added was about 20 seconds was selected. A CT2 value (concentration by which the coagulation time is prolonged to an extent of 2-fold) was determined by plotting the drug concentrations and relative value (fold) of the coagulation time to the control, followed by subjecting to linear regression.

[1] = Test on ex vivo measurement of coagulation time in mice (oral administration); details: male ICR mouse, po 100 mg/kg, as compared with control (plasma without administration of a drug)
Procedure: 4) Test on ex vivo Measurement of Coagulation Time in Mice (Oral Administration)
Using the resulting blood plasma, extrinsic coagulation time (PT) and intrinsic coagulation time (APTT) were measured in accordance with the following methods a) and b).
(§1) a) Extrinsic Coagulation Time (PT)
(§2) Ortho Brain Thromboplastin (54 mg/vial; a freeze-dried preparation; Ortho-Clinical Diagnostics) was dissolved in 2.5 ml of Milli-Q water and preliminarily warmed at 37° C. The above-separated blood plasma (50 μl) was warmed at 37° C. for 1 minute, 50 μl of the above-mentioned thromboplastin solution was added and the coagulation time was measured. Amelung KC10A was used for the measurement of the coagulation time.
(§3) b) Intrinsic Coagulation Time (APTT)
(§4) To 50 μl of the above blood plasma was added 50 μl of Hemoliance Thrombosil I (DIA-IATRON), the mixture was warmed at 37° C. for 3 minutes, 50 μl of a 20 mM CaCl2 solution previously warmed at 37° C. were added and the coagulation time was measured. KC10A manufactured by Amelung was used for the measurement of the coagulation time.
Dose dependency of and time-course changes in the anticoagulation action were also examined by changing the administration dose or the blood collection time.

[2] = Test on ex vivo measurement of coagulation time in cynomolgus monkeys (oral administration); details: male cynomolgus monkeys, po 10 mg/kg, as compared with control (plasma without administration of a drug)
Procedure: as §1, §2, §3, §4
5) Test on ex vivo Measurement of Coagulation Time in Cynomolgus Monkeys (Oral Administration) […]

T1 sequence (P00742 235-488 limits assumed): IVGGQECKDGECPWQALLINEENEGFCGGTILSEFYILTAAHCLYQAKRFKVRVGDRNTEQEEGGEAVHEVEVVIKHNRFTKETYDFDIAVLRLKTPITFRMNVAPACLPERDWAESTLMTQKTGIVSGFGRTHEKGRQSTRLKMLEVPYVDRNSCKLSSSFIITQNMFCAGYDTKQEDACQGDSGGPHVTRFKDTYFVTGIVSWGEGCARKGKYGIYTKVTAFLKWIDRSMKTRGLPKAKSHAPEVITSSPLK
T1 sequence (P00742 41-179 partner limits assumed): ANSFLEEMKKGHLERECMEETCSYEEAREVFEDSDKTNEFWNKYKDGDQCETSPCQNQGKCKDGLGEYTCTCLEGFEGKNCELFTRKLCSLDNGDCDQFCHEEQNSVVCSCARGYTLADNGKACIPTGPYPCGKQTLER

Row | SMILES | Test on measurement of coagulation time by human activated blood coagulation factor X (CT2) (human factor Xa) [µM] | Test on measurement of coagulation time by bovine thrombin (CT2) (bovine thrombin) [µM] | prolongation of extrinsic coagulation time (PT) [1] | prolongation of intrinsic coagulation time (APTT) [1] | prolongation of extrinsic coagulation time (PT) [2] | prolongation of intrinsic coagulation time (APTT) [2]
1 | COc1ccc(C(=O)Nc2ccccc2NC(=O)c2ccc(C3CCNCC3)cc2)cc1 [Control 1, reference compound] | 17.0 | >100 | – | – | – | –
2 | COc1ccc(C(=O)Nc2ccc(O)cc2NC(=O)c2ccc(N(C)C)cc2)cc1 [Control 2, reference compound] | 11.3 | – | – | – | – | –
3 | CN1CCCN(c2ccc(C(=O)Nc3cc(C(=O)O)ccc3COc3cccc(C(=N)N)c3)cc2)CC1.Cl [Example 3] | – | – | twice or more | twice or more | twice or more | twice or more
4 | CN1CCCN(c2ccc(C(=O)Nc3cc(C(=O)O)ccc3CCc3cccc(C(=N)N)c3)cc2)CC1.Cl [Example 5] | 0.10 | >100 | – | – | – | –
5 | COc1ccc(NC(=O)c2cccc(O)c2NC(=O)c2ccc(N3CCCN(C)CC3)cc2)cc1.Cl [Example 9, 3-hydroxy-4′-methoxy-2-{[4-(4-methyl-1,4-diazapan-1-yl)benzoyl]amino}benzanilide hydrochloride] | 1.71 | >100 | – | – | – | –
6 | CN1CCCN(c2ccc(C(=O)Nc3c(O)cccc3C(=O)Nc3ccc(F)cc3)cc2)CC1.Cl [Example 11] | 1.33 | >100 | – | – | – | –
7 | COc1ccc(C(=O)Nc2cccc(O)c2NC(=O)c2ccc(N3CCCN(c4ccncc4)CC3)cc2)cc1.Cl [Example 32] | 1.41 | >100 | – | – | – | –
8 | COc1ccc(C(=O)Nc2cccc(OCCO)c2NC(=O)c2ccc(N3CCCN(C)CC3)cc2)cc1.Cl [Example 39, 3-(2-hydroxyethoxy)-N^1-(4-methoxybenzoyl)-N^2-[4-(4-methyl-1,4-diazepan-1-yl)benzoyl]-1,2-phenylenediamine hydrochloride] | 1.53 | >100 | – | – | – | –
